Source: the supplement of paper PMC10307832

How the values were obtained:
Test in all cases: relative viability (nuclei count vs DMSO), 5 days (fraction); higher = more cells survive
[1] = compound: O=C(CCCCCCNC(=O)c1cnc(N(c2ccccc2)c2ccccc2)nc1)NO [Ricolinostat] + CC1(C)CCC(c2ccc(Cl)cc2)=C(CN2CCN(c3ccc(C(=O)NS(=O)(=O)c4ccc(N[C@H](CCN5CCOCC5)CSc5ccccc5)c(S(=O)(=O)C(F)(F)F)c4)cc3)CC2)C1 [Navitoclax] (partner 0.5 µM)
Procedure, shortened: (§1)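 After 5 days of treatment, lung cancer cells in 1536-well plates were fixed and stained in a single step (final 0.05% Triton X-100, 1% formaldehyde, 1 ug/ml Hoechst) and their nuclei counted on 4× images. Treatment had been applied by pin tool the day after seeding as one drug alone or as a fixed anchor-drug dose with five library-drug doses (not always all listed) in √10 steps. Relative viability is the nuclei count of treated wells divided by that of vehicle wells, and values are medians of duplicate plates.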

[2] = compound: C1=CC=C(C(=C1)C2=CC=C(C=C2)C3=CSC4=C3C(=C(C(=O)N4)C#N)O)O + O=C(CCCCCCC(=O)Nc1ccccc1)NO [Vorinostat] (partner 1 µM)
Procedure, shortened: as §1

Ricolinostat + Olaparib = compound: O=C(CCCCCCNC(=O)c1cnc(N(c2ccccc2)c2ccccc2)nc1)NO [Ricolinostat] + O=C(c1cc(Cc2n[nH]c(=O)c3ccccc23)ccc1F)N1CCN(C(=O)C2CC2)CC1 [Olaparib] (partner 8 µM)
Procedure, shortened: as §1

[3] = compound: C1=CC=C(C(=C1)C2=CC=C(C=C2)C3=CSC4=C3C(=C(C(=O)N4)C#N)O)O + C[C@@H](Oc1cc(-c2cnn(C3CCNCC3)c2)cnc1N)c1c(Cl)ccc(F)c1Cl [Crizotinib] (partner 1 µM)
Procedure, shortened: as §1

| Cell Line | relative viability ([1]; first compound 0.08 µM) | relative viability ([1]; first compound 0.253 µM) | relative viability ([1]; first compound 0.8 µM) | relative viability ([1]; first compound 2.53 µM) | relative viability ([2]; first compound 0.08 µM) | relative viability ([2]; first compound 0.253 µM) | relative viability ([2]; first compound 0.8 µM) | relative viability ([2]; first compound 2.53 µM) | relative viability ([2]; first compound 8 µM) | relative viability (Ricolinostat + Olaparib; first compound 0.08 µM) | relative viability (Ricolinostat + Olaparib; first compound 0.253 µM) | relative viability (Ricolinostat + Olaparib; first compound 0.8 µM) | relative viability (Ricolinostat + Olaparib; first compound 2.53 µM) | relative viability ([3]; first compound 0.08 µM) | relative viability ([3]; first compound 0.253 µM) | relative viability ([3]; first compound 0.8 µM) | relative viability ([3]; first compound 2.53 µM) | relative viability ([3]; first compound 8 µM) |
| --- | --- | --- | --- | --- | --- | --- | --- | --- | --- | --- | --- | --- | --- | --- | --- | --- | --- | --- |
| NCI-H1734 | 0.645 | 0.826 | 0.924 | 0.78 | 0.747 | 0.767 | 0.751 | 0.803 | 0.765 | 0.61 | 0.642 | 0.601 | 0.324 | 0.627 | 0.703 | 0.689 | 0.634 | 0.444 |
| NCI-H1993 | 0.798 | 1.11 | 1.01 | 1.04 | 0.57 | 1.02 | 0.979 | 0.845 | 0.644 | 0.883 | 0.875 | 1.02 | 0.892 | 0.794 | 0.922 | 0.816 | 0.776 | 0.741 |
| HCC-827 | 0.95 | 1.02 | 1.01 | 0.909 | 0.666 | 0.946 | 0.95 | 0.872 | 0.918 | 0.553 | 0.634 | 0.593 | 0.617 | 1.02 | 0.959 | 0.965 | 1.03 | 0.926 |
| NCI-H1437 | 1 | 1.07 | 1.02 | 0.831 | 0.788 | 0.934 | 0.889 | 0.874 | 0.603 | 0.628 | 0.595 | 0.598 | 0.409 | 0.699 | 0.989 | 0.883 | 1.01 | 0.765 |
| EPLC-272H |  | 0.784 | 0.992 | 0.631 | 0.466 | 0.387 | 0.357 | 0.401 | 0.42 | 0.866 | 0.938 | 0.612 | 0.309 |  | 1.04 | 0.839 | 0.891 | 0.796 |
| NCI-H2126 | 0.666 | 0.807 | 0.836 | 0.679 | 0.846 | 0.787 | 0.803 | 0.832 | 0.732 | 0.789 | 0.889 | 0.93 | 0.851 | 0.921 | 1.11 | 1 | 1.09 | 0.912 |
| NCI-H1666 | 0.909 | 1.12 | 0.816 | 0.471 | 0.905 | 1.04 | 0.993 | 1.03 | 0.984 | 0.708 | 0.709 | 0.695 | 0.829 | 0.914 | 1.15 | 0.731 | 0.769 | 1.03 |
| RERF-LC-KJ | 0.831 | 0.993 | 0.841 | 0.787 | 0.639 | 0.763 | 0.751 | 0.714 | 0.544 | 0.897 | 0.894 | 0.773 | 0.582 | 0.875 | 0.885 | 0.858 | 0.86 | 0.763 |
| IA-LM | 0.802 | 0.626 | 0.747 | 0.603 |  | 1.37 | 0.856 | 1 | 0.376 | 0.728 | 0.92 | 0.737 | 0.586 | 0.826 | 0.914 | 0.714 | 0.882 | 0.439 |
| ChaGo-K-1 | 1.11 | 1.11 | 0.888 | 0.953 | 0.733 | 0.821 | 0.801 | 0.822 | 0.683 | 0.464 | 0.395 | 0.364 | 0.324 | 1.06 | 1.43 | 1.31 | 1.17 | 0.817 |
